From patent US20040082815A1, “Benzophenones, the production thereof and their use for controlling plant pathogenic fungi” (priority 2001, published 2004)

Tested on: Erysiphe graminis forma specialis tritici
Experiment: Activity against powdery mildew of wheat, protective spray test on wheat seedlings cv. Kanzler
Assay type: in vivo, Erysiphe graminis forma specialis tritici (on wheat)
Conditions: sprayed to runoff 24 h before inoculation, rated visually after 7 days, untreated plants 90% disease
Description: The active ingredients, separately or jointly, were prepared as a 10% strength emulsion in a mixture of 70% by weight of cyclohexanone, 20% by weight of Nekanil® LN (Lutensol® AP6, wetter with emulsifying and dispersing action based on ethoxylated alkylphenols) and 10% by weight of Wettol® EM (nonionic emulsifier based on ethoxylated castor oil) and diluted with water to give the desired concentration.
Use Example 1—Activity Against Powdery Mildew of Wheat (Erysiphe graminis f. sp. […] f. sp. tritici)
Leaves of wheat seedlings cv. “Kanzler” which have grown in pots were sprayed to runoff point with aqueous preparation of active ingredient made with a stock solution composed of 10% of active ingredient, 63% of cyclohexanone and 27% of emulsifier, and, 24 hours after the spray coating had dried on, dusted with spores of powdery mildew of wheat (Erysiphe graminis forma specialis tritici). The test plants were subsequently placed in a greenhouse at temperatures between 20 and 24° C. and a relative atmospheric humidity of 60 to 90%. After 7 days, the extent of the mildew development was determined visually in % disease of the total leaf area.

Row | Structure (SMILES) | extent of mildew development, % disease of the total leaf area (4 ppm) | extent of mildew development, % disease of the total leaf area (16 ppm)
1 | COc1cc(C)c(C(=O)c2c(Cl)ccc(Cl)c2C)c(OC)c1OC [I.1-02, 2,5-Dichloro-2′,6-dimethyl-4′,5′,6′-trimethoxybenzophenone] | no disease | no disease
2 | COc1cc(C)c(C(=O)c2c(F)ccc(F)c2C)c(OC)c1OC [I.5-02, 2,5-Difluoro-2′,6-dimethyl-4′,5′,6′-trimethoxybenzophenone] | 1% | no disease
